# Measured values reported in article PMC3397391 (Chemistry & biology, 2012).
# Test system: cultured P. falciparum
# Test: Cell culture inhibition assay, cultured parasites
# Assay type: cell-based, Plasmodium falciparum
# Conditions: in the presence of hypoxanthine; data not shown
compound,measurement,value
"O=c1[nH]cnc2c([C@@H]3N[C@H](COP(=O)(O)O)[C@@H](O)[C@H]3O)c[nH]c12 [ImmHP, Immucillin-H 5′-phosphate]",activity against cultured P. falciparum,lacks activity
